US11891601B2, “Method to enhance the transcription regulation of SUPT4H on genes containing repetitive nucleotide sequences” (National Yang-Ming University, priority 2018, dated 2024)

Tested on: HD-Drosophila expressing mutant HTT97Q
Assay: Rough eye phenotype in HD-Drosophila (Gmr-HTT97Q)
Format: in vivo, Drosophila melanogaster
Details: 10 μM 6CR plus 100 μM Tropolone in media
Procedure: The Gmr-ga14-UAS-HTT97Q/cyo line expressing HTT97Q under the control of Gmr-gal4 in compound eyes was provided by MT SU (National Taiwan Normal University, Taipei, Taiwan). Fly stock was maintained and crossed at 25° C. on a standard cornmeal yeast agar medium.
In each compound treatment experiment, 15 Gmr-ga14-UAS-HTT97Q/cyo male flies were crossed with 15 Gmr-ga14-UAS-HTT-97Q/cyo females in a vial containing 10 mL of media supplemented with the testing compound at a final concentration of 10 μM 6CR (Sigma) or/and 100 μM Tropolone (Sigma). 6-chloropurine riboside (6CR) is a chemical reagent that inhibits the activity of SUPT4H by preventing the complex formation of SUPT4H/SUPT5H (Patent No.: US2018/0064744A1). Parent flies were removed after 7 days, and 4-day-old progenies carrying one Gmr-ga14-UAS-HTT97Q allele were collected for eye morphology examination. […] In each treatment group, flies were analyzed and normalized with control flies. […]
Please refer to FIG. 8. […] After parent fly removal, the 4-day-old progenies carrying one Gmr-ga14-UAS-HTT97Q allele were collected and analyzed for eye morphology. […] 4-day-old progenies as described above were collected and analyzed the levels of mutant HTT by Western blotting. α-tubulin was included and served as a loading control. […]

`O=c1cccccc1O` [Tropolone] was tested, and the “rescue effect of rough eye phenotype by 6CR with co-treatment of Tropolone” value was “greatly improved”.
